± gives the expanded uncertainty stated by the source.
How the values were obtained:
[1] = refractive index (Na D-line) (dimensionless); details: 298.15 K; 101.33 kPa; Liquid; Standard Abbe refractometry
[2] = 298.15 K; 100 kPa; Liquid; Vibrating tube method
[3] = xn = mol fraction of the nth substance listed; details: 298.15 K, 100 kPa, Liquid, Vibrating tube method
[4] = excess molar enthalpy (molar enthalpy of mixing); xn = mol fraction of the nth substance listed; details: 298.15 K, 100 kPa, Liquid, Calvet calorimetry

CO [methanol]
Details | mass density [kg/m3] | refractive index
[1] | – | 1.3261 ± 0.0005
[2] | 786.4 ± 0.15 | –

CO [methanol] + CCCCC(=O)OC
Details | mass density [kg/m3]
[3], x2 = 0 | 786.4 ± 0.15

CO [methanol] + COC=O
Details | mass density [kg/m3]
[3], x2 = 0 | 786.4 ± 0.15

COC=O [methyl methanoate]
Details | mass density [kg/m3] | refractive index
[1] | – | 1.3411 ± 0.0005
[2] | 966.28 ± 0.18 | –

COC=O [methyl methanoate] + CCCCC(=O)OC
Details | mass density [kg/m3]
[3], x2 = 0 | 966.28 ± 0.18

COC=O [methyl methanoate] + CO
Details | excess molar enthalpy, [4] [kcal/mol] | mass density, [3] [kg/m3]
x1 = 0.02 | 0.0179 ± 0.000478 | –
x1 = 0.0337 | – | 795.73 ± 0.18
x1 = 0.0487 | 0.0428 ± 0.000956 | –
x1 = 0.0833 | 0.0743 ± 0.00167 | 808.8 ± 0.18
x1 = 0.1225 | 0.105 ± 0.00239 | –
x1 = 0.1557 | – | 826.74 ± 0.17
x1 = 0.167 | 0.138 ± 0.00311 | –
x1 = 0.19 | – | 834.77 ± 0.16
x1 = 0.2135 | 0.168 ± 0.00359 | –
x1 = 0.2499 | – | 848.14 ± 0.16
x1 = 0.2613 | 0.195 ± 0.0043 | –
x1 = 0.3086 | 0.218 ± 0.00478 | –
x1 = 0.3219 | – | 863.26 ± 0.15
x1 = 0.3501 | 0.236 ± 0.00502 | –
x1 = 0.3644 | 0.241 ± 0.00526 | –
x1 = 0.3906 | – | 876.73 ± 0.15
x1 = 0.3943 | 0.252 ± 0.0055 | –
x1 = 0.4077 | 0.257 ± 0.0055 | –
x1 = 0.4572 | 0.27 ± 0.00574 | –
x1 = 0.4946 | – | 895.61 ± 0.15
x1 = 0.5127 | 0.282 ± 0.00598 | –
x1 = 0.5416 | – | 903.58 ± 0.15
x1 = 0.5783 | 0.286 ± 0.00621 | –
x1 = 0.646 | 0.282 ± 0.00598 | –
x1 = 0.6467 | – | 920.31 ± 0.15
x1 = 0.7178 | 0.264 ± 0.00574 | –
x1 = 0.7271 | – | 932.1 ± 0.16
x1 = 0.7815 | – | 939.62 ± 0.16
x1 = 0.7842 | 0.235 ± 0.00502 | –
x1 = 0.8517 | 0.193 ± 0.00406 | –
x1 = 0.8533 | – | 949.01 ± 0.17
x1 = 0.8968 | – | 954.39 ± 0.17
x1 = 0.9098 | 0.14 ± 0.00311 | –
x1 = 0.9357 | – | 959.02 ± 0.18
x1 = 0.9505 | 0.081 ± 0.00191 | –
x1 = 1 | – | 966.28 ± 0.18

CCCCC(=O)OC [methyl pentanoate]
Details | mass density [kg/m3] | refractive index
[1] | – | 1.3952 ± 0.0005
[2] | 884.78 ± 0.3 | –

CCCCC(=O)OC [methyl pentanoate] + CO
Details | excess molar enthalpy [kcal/mol] | mass density [kg/m3]
[3], x1 = 0.0235 | – | 793.56 ± 0.19
[3], x1 = 0.062 | – | 803.85 ± 0.18
[3], x1 = 0.0741 | – | 806.78 ± 0.18
[3], x1 = 0.1314 | – | 818.95 ± 0.17
[3], x1 = 0.1512 | – | 822.61 ± 0.16
[3], x1 = 0.2017 | – | 830.95 ± 0.16
[3], x1 = 0.248 | – | 837.51 ± 0.16
[3], x1 = 0.304 | – | 844.36 ± 0.16
[3], x1 = 0.3501 | – | 849.28 ± 0.16
[3], x1 = 0.4499 | – | 858.16 ± 0.17
[3], x1 = 0.5121 | – | 862.75 ± 0.18
[3], x1 = 0.6073 | – | 868.69 ± 0.19
[3], x1 = 0.6865 | – | 872.86 ± 0.21
[3], x1 = 0.7472 | – | 875.67 ± 0.22
[3], x1 = 0.7884 | – | 877.42 ± 0.23
[3], x1 = 0.7982 | – | 877.81 ± 0.24
[3], x1 = 0.8786 | – | 880.85 ± 0.26
[3], x1 = 0.963 | – | 883.66 ± 0.29
[3], x1 = 1 | – | 884.78 ± 0.3
[4], x1 = 0.0244 | 0.0198 ± 0.000717 | –
[4], x1 = 0.0512 | 0.0404 ± 0.000956 | –
[4], x1 = 0.0839 | 0.0662 ± 0.00143 | –
[4], x1 = 0.1195 | 0.0915 ± 0.00191 | –
[4], x1 = 0.1562 | 0.116 ± 0.00263 | –
[4], x1 = 0.192 | 0.138 ± 0.00311 | –
[4], x1 = 0.2279 | 0.159 ± 0.00335 | –
[4], x1 = 0.264 | 0.176 ± 0.00382 | –
[4], x1 = 0.2993 | 0.196 ± 0.0043 | –
[4], x1 = 0.3336 | 0.209 ± 0.00454 | –
[4], x1 = 0.367 | 0.22 ± 0.00478 | –
[4], x1 = 0.3861 | 0.226 ± 0.00478 | –
[4], x1 = 0.4156 | 0.237 ± 0.00502 | –
[4], x1 = 0.4625 | 0.252 ± 0.0055 | –
[4], x1 = 0.5081 | 0.261 ± 0.0055 | –
[4], x1 = 0.5867 | 0.262 ± 0.0055 | –
[4], x1 = 0.6887 | 0.24 ± 0.00526 | –
[4], x1 = 0.7931 | 0.194 ± 0.0043 | –
[4], x1 = 0.8868 | 0.127 ± 0.00287 | –
[4], x1 = 0.957 | 0.0574 ± 0.00143 | –

CCCCC(=O)OC [methyl pentanoate] + COC=O
Details | excess molar enthalpy [kcal/mol] | mass density [kg/m3]
[3], x1 = 0.0555 | – | 956.19 ± 0.2
[3], x1 = 0.104 | – | 948.47 ± 0.2
[3], x1 = 0.1464 | – | 942.39 ± 0.21
[3], x1 = 0.2093 | – | 934.27 ± 0.21
[3], x1 = 0.2537 | – | 929.22 ± 0.22
[3], x1 = 0.3106 | – | 923.46 ± 0.22
[3], x1 = 0.3493 | – | 919.84 ± 0.23
[3], x1 = 0.4011 | – | 915.46 ± 0.23
[3], x1 = 0.4572 | – | 911.17 ± 0.24
[3], x1 = 0.5 | – | 908.17 ± 0.24
[3], x1 = 0.5539 | – | 904.69 ± 0.25
[3], x1 = 0.6081 | – | 901.55 ± 0.26
[3], x1 = 0.6522 | – | 899.15 ± 0.26
[3], x1 = 0.7258 | – | 895.5 ± 0.27
[3], x1 = 0.7765 | – | 893.24 ± 0.27
[3], x1 = 0.836 | – | 890.8 ± 0.28
[3], x1 = 0.9031 | – | 888.23 ± 0.29
[3], x1 = 1 | – | 884.78 ± 0.3
[4], x1 = 0.0272 | 0.0141 ± 0.000478 | –
[4], x1 = 0.0583 | 0.0268 ± 0.000717 | –
[4], x1 = 0.0932 | 0.0409 ± 0.000956 | –
[4], x1 = 0.1292 | 0.055 ± 0.0012 | –
[4], x1 = 0.172 | 0.0696 ± 0.00143 | –
[4], x1 = 0.2104 | 0.0813 ± 0.00191 | –
[4], x1 = 0.2533 | 0.0906 ± 0.00191 | –
[4], x1 = 0.2946 | 0.0958 ± 0.00215 | –
[4], x1 = 0.3096 | 0.0987 ± 0.00215 | –
[4], x1 = 0.3486 | 0.101 ± 0.00215 | –
[4], x1 = 0.3982 | 0.103 ± 0.00215 | –
[4], x1 = 0.4522 | 0.103 ± 0.00215 | –
[4], x1 = 0.5232 | 0.0978 ± 0.00215 | –
[4], x1 = 0.6056 | 0.0875 ± 0.00191 | –
[4], x1 = 0.6943 | 0.0727 ± 0.00167 | –
[4], x1 = 0.7968 | 0.0523 ± 0.0012 | –
[4], x1 = 0.8656 | 0.0347 ± 0.000717 | –
[4], x1 = 0.93 | 0.0201 ± 0.000478 | –

From the NIST ThermoML archive (doi:10.1016/j.jct.2015.02.019)
